Measured values taken from paper PMC11923102 (Nature Communications, 2025).
Numbering of substitutions follows the chain as printed. Read-outs that look alike come from different tables or passages of the source. Values belong to the compound of their own block, whether it stands above or below them.

Assays:
Format in all cases: cell-based
[1] = biological target: T1, mTRPV3 (Mus musculus, UniProt Q8K424); test: whole-cell patch clamp, inhibition of citronellal-evoked currents
T1 sequence (Q8K424 1-791): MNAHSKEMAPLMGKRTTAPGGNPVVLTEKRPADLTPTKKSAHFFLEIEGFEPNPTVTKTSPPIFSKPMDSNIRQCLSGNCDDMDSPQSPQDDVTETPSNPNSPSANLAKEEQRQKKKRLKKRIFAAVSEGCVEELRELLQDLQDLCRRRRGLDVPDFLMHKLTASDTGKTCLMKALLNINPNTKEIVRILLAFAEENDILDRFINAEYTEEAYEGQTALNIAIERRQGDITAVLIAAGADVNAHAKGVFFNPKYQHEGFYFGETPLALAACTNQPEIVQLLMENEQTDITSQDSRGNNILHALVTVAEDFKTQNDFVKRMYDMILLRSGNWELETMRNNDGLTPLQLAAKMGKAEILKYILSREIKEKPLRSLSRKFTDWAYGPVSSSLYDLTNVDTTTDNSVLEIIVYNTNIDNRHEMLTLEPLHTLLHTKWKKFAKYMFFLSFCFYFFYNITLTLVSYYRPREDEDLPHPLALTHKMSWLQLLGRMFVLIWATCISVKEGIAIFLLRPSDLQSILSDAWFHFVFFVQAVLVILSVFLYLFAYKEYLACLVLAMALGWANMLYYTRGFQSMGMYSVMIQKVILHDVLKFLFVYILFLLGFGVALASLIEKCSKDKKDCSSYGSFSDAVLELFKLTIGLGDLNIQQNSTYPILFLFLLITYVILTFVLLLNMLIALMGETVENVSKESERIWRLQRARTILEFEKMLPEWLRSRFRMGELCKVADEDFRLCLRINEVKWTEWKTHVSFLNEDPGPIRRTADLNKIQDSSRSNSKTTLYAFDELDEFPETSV

[2] = biological target: T2, TRPV3 (hTRPV3) (Homo sapiens, UniProt Q8NET8); test: cryo-EM structure
T2 sequence (Q8NET8 1-790): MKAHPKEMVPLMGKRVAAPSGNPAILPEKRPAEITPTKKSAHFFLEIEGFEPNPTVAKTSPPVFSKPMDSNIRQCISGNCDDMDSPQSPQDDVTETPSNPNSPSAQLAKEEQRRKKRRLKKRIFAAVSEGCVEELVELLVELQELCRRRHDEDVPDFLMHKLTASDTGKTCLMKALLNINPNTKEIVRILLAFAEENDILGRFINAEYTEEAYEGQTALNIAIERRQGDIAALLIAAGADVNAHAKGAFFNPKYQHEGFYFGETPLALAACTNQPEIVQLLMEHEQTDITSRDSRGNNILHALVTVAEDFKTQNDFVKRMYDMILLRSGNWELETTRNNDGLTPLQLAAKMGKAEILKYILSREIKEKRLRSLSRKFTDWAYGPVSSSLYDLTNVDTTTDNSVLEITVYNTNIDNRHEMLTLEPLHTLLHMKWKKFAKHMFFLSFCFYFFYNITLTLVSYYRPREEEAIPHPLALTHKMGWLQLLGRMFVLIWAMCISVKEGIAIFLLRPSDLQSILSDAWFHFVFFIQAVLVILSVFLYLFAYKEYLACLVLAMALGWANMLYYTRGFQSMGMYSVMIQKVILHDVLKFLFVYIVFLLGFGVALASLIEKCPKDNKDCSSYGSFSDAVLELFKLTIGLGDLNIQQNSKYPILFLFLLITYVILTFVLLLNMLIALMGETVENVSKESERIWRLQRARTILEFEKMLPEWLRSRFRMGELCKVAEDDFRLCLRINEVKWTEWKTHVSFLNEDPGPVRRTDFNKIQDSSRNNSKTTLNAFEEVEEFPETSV

[3] = biological target: T2, TRPV3 (hTRPV3); test: cryo-EM structure; remark: listed apart in the source
[4] = biological target: T3, TRPV3 (hTRPV3) (Homo sapiens, UniProt Q8NET8, Q695L); test: whole-cell patch clamp
T3 sequence (Q8NET8 1-790 Q695L): T2 sequence (Q8NET8 1-790) with Q695L

IC50 [1]: 0.00073 ± 5e-05 mM
SMILES: CCCCOc1ccc(C(=O)CCN2CCCCC2)cc1 [dyclonine]

EC50 [2]: 6.61 ± 0.93 mM
SMILES: CC(C)=CCC/C(C)=C/C=O [citral]

EC50 [3]: 6.19 ± 0.6 mM | EC50 [4]: 0.42 ± 0.02 mM
SMILES: C=CC(C)(O)CCC=C(C)C (stereo not shown) [linalool]
